Assay results published in US9034891B2, “Bicyclic heterocyclic spiro compounds” (ISRAEL INSTITUTE FOR BIOLOGICAL RESEARCH, priority 2009, dated 2015).
“Also recorded” adds a separate entry of the source. Read-outs that look alike come from different tables or passages of the source.

Assays:
[1] = molecular target: T1, M1 mAChR (Homo sapiens, UniProt P11229); test: αAPPs secretion in CHO cells double transfected with human APP695 and human M1 mAChR; format: cell-based
T1 sequence (P11229 1-460): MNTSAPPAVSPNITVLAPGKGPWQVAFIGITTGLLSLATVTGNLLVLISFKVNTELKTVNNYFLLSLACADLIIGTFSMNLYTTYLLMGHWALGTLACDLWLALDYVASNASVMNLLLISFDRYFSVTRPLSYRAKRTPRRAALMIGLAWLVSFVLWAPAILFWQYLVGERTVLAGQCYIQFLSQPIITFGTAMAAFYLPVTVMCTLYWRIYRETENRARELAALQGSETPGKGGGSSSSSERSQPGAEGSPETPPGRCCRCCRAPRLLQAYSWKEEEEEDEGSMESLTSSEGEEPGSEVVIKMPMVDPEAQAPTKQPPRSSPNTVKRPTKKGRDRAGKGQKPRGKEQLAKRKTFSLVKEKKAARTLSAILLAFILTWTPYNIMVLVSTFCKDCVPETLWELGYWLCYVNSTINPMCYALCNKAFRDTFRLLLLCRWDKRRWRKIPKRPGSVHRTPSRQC
Description: (§1) α-APPs Secretion studies following incubation with the tested compounds were performed as described in Haring, et al. J. Neurochem., 1998, 71:2094-103. […] A day later, cells were washed twice with serum free media, and treated with the test compound at various concentrations ranging from 0.1 nM to 100 μM. […] After 1 hour the conditioned medium was collected to cold Eppendorf tubes, which included a protease inhibitor cocktail (0.1 mM phenylmethylsulphonyl fluoride (PMSF); 5 μg/ml leupeptin; 5 μg/ml pepstatin and 5 units/ml aprotinin) for determining αAPPs release. The protein content of each sample was concentrated using Centricon tubes (Amicon, Beverly, Mass.). […] CHO cells double transfected with human APP695 and M1 mAChR APPs bands were probed using anti-amyloid beta protein (1:1000, monoclonal 6E10 antibody, MAB1560, Chemicon) and peroxidase-linked rabbit anti mouse IgG (1:5,000; Jackson Immuno Research, PA). PC12 cells stably transfected with M1 mAChR APPs bands were probed using the anti-Alzheimer precursor protein A4 (1:4,000; monoclonal 22C11 antibody, Boehringer Mannheim) and the peroxidase-linked rabbit anti mouse IgG (1:20,000; Jackson Immuno Research, PA). Following extensive washout, the membranes were treated with Western Lightning Chemiluminescence Reagent Plus (PerkinElmer Life Sciences, MA) followed by exposure to SuperRX film (Fuji Medical X-ray film, Tokyo, Japan). Quantitative determination of the total APPs bands was performed by Scion Image program (NIH, Bethesda, USA). Samples of control and CCh were assayed in parallel and thus enabled compilation of data from separate experiments.

[2] = molecular target: T2, Histamine 2 Receptor (Homo sapiens, UniProt P25021); test: High-throughput profiling, binding at 10 μM
Description: (§2) It was specifically designed to provide information not only on potential limitations of drug candidates, but also for off-target activity identification. […] In a further extension of this study, functional studies were done on most of these receptors.

[3] = molecular target: 5HT Transporter (Homo sapiens, UniProt P31645); test: High-throughput profiling, binding at 10 μM
Description: as §2

[4] = molecular target: T3, 5HT2A receptor (Homo sapiens, UniProt P28223); test: High-throughput profiling, binding at 10 μM
Description: as §2

[5] = molecular target: 5HT2B Receptor (Homo sapiens, UniProt P41595); test: High-throughput profiling, binding at 10 μM
Description: as §2

[6] = molecular target: Mu Receptor (Homo sapiens, UniProt P35372); test: High-throughput profiling, binding at 10 μM
Description: as §2

[7] = molecular target: M2 mAChR (Homo sapiens, UniProt P08172); test: High-throughput profiling, binding at 10 μM
Description: as §2

[8] = tested on: Sigma Receptor; test: High-throughput profiling, binding at 10 μM
Description: as §2

[9] = molecular target: T4, 5HT2C Receptor (Homo sapiens, UniProt P28335); test: High-throughput profiling, binding at 10 μM
Description: as §2

[10] = molecular target: T2, Histamine 2 Receptor; test: Functional study, agonist or antagonist
Description: as §2

[11] = molecular target: T3, 5HT2A receptor; test: Functional study, agonist or antagonist
Description: as §2

[12] = molecular target: T4, 5HT2C Receptor; test: Functional study, agonist or antagonist
Description: as §2

[13] = molecular target: T5, sigma 1 receptors (Cavia porcellus, UniProt Q60492); test: Displacement of tritiated-pentazocine from guinea-pig cerebral cortex; format: binding
T5 construct: displacement assay of tritiated-pentazocine from guinea-pig cerebral cortex; from tissue; host or cells: guinea-pig cerebral cortex
Description: as §2

[14] = Description: On the day of dosing, careful clinical examinations were carried out and recorded periodically during the first 4 hours post-dosing and at the end of the respective working day. Thereafter, animals were inspected and clinical signs were recorded at least once daily throughout the entire 14-day observation period. Observations included changes in skin, fur, eyes, mucous membranes, occurrence of secretions and excretions (e.g. diarrhea) and autonomic activity (e.g. lacrimation, salivation, piloerection, pupil size, unusual respiratory pattern). Changes in gait, posture and response to handling, as well as the presence of bizarre behavior, tremors, convulsion, sleep and coma were also examined. […] In view of the sequential method applied in the current study and in order to standardize, as much as possible, all body weight and body weight gain values, the respective percentage change in body weight vs. the day of dosing was calculated for each animal and group. […] All animals were subjected to a full detailed necropsy and gross pathological examination following the scheduled termination. At necropsy, all animals were subjected to thorough examination, including the external surface of the body, all orifices, cranial, thoracic and abdominal cavities and their contents.
[15] = molecular target: T6, rat M1 mAChR (Rattus norvegicus, UniProt P08482); test: αAPPs secretion in PC12 cells stably transfected with rat M1 mAChR; format: cell-based; settings: 0.1 nM to 1 μM, not observed in untransfected PC12
T6 construct: expressed in transfected cells; host or cells: rat pheochromocytoma PC12 cells
Description: as §1, with “Following extensive washout, the membranes were treated with Western Lightning Chemiluminescence Reagent Plus (PerkinElmer Life Sciences, MA) followed by exposure to SuperRX film (Fuji Medical X-ray film, Tokyo, Japan).” left out, “Samples of control and CCh were assayed in parallel and thus enabled compilation of data from separate experiments.” left out

[16] = molecular target: T1, M1 mAChR; test: High-throughput profiling, binding at 10 μM; set-up: expressed in transfected cells
Description: as §2

[17] = tested on: GSK-3β; test: Phospho-GSK3β (Ser 9) western blot in PC12 cells transfected with M1 mAChR, +Aβ25-35; format: cell-based, rat; settings: 100 μM-1 nM; Aβ25-35 20 μM
Description: Anti-GSK-3 (Santa Cruz Biotechnology) is a phosphorylation-independent monoclonal antibody reactive with both GSK-3α and GSK3β. In the same experiments the status of tau protein phosphorylation was studied using mouse anti Tau-1 monoclonal antibody (Chemicon, CAT number MAB3420), which recognizes an unphosphorylated epitope of tau.

[18] = tested on: M2-M5 mAChR subtypes; test: Intracellular Ca2+ mobilization in cells stably transfected with M2-M5 mAChR subtypes; format: cell-based
Description: To evaluate selectivity for a subtype of mAChR, in particular the M1 mAChR vs. M3 and MS mAChR, the assays were calibrated using ligands that have a combined activity, e.g. M1 agonistic and M3 antagonistic or M1 agonistic and MS antagonistic profiles, respectively. This can eliminate effects due to different receptor reserves in cell-based assays.

[19] = molecular target: T1, M1 mAChR

T5 sequence (Q60492 whole entry): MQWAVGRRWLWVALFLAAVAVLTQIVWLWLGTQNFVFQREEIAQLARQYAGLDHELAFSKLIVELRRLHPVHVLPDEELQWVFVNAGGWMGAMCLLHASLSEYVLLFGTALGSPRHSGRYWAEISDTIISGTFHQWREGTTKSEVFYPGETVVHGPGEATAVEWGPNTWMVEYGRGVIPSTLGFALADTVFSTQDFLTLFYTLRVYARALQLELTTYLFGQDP
T3 sequence (P28223 whole entry): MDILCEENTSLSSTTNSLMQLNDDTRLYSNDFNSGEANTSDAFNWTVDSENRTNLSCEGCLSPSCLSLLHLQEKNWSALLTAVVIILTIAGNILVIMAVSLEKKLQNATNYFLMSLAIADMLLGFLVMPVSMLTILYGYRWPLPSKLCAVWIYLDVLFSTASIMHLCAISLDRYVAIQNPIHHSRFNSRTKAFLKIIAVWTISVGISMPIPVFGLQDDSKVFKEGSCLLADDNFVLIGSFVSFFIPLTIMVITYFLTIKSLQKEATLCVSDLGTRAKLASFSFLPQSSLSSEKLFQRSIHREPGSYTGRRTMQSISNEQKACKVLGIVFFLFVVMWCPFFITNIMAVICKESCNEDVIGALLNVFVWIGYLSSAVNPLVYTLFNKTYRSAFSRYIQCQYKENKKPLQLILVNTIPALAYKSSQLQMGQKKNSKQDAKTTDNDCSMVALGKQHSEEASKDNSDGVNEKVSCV
T2 sequence (P25021 whole entry): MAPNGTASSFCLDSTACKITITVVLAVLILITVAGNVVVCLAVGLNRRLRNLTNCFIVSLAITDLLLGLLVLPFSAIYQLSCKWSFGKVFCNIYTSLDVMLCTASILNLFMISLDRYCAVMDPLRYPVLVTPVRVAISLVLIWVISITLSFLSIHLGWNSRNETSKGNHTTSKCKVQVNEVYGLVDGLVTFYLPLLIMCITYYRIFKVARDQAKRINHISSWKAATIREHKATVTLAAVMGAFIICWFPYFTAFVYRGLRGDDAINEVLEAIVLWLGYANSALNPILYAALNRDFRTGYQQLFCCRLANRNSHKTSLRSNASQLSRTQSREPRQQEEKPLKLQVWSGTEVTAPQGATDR
T4 sequence (P28335 33-458): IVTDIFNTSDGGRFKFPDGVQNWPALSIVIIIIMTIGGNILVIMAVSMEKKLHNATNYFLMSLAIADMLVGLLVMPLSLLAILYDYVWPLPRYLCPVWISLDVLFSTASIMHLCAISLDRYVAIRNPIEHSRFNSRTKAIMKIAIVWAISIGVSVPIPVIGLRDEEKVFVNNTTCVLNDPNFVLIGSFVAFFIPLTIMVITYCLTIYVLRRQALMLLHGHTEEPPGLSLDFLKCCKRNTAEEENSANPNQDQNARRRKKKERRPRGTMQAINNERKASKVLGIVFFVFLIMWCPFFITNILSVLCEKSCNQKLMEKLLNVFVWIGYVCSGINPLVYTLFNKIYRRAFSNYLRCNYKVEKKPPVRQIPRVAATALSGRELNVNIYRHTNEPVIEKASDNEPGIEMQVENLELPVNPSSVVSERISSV
T6 sequence (P08482 whole entry): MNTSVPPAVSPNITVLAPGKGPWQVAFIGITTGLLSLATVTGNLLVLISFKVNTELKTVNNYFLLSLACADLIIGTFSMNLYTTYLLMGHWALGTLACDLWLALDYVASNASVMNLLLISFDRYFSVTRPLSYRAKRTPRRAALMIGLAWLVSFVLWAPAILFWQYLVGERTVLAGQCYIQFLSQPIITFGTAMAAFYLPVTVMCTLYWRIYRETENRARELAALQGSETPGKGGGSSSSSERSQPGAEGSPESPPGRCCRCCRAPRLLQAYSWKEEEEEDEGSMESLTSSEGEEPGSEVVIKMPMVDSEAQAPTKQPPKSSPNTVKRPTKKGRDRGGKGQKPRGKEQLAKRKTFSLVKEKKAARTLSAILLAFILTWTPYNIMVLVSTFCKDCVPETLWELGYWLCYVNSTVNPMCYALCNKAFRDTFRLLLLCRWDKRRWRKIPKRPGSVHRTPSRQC
Chain of Mu Receptor (P35372 whole entry): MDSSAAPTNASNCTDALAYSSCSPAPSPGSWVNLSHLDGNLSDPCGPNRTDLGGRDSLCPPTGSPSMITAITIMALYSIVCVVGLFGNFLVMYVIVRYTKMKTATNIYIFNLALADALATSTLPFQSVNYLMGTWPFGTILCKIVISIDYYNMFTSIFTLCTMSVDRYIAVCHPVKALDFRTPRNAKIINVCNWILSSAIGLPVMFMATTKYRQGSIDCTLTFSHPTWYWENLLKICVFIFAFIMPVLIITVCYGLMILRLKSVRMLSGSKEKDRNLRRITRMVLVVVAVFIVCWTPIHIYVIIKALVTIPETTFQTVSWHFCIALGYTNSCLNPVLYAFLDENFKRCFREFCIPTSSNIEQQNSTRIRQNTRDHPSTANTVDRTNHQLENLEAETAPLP
Chain of 5HT Transporter (P31645 whole entry, species assumed): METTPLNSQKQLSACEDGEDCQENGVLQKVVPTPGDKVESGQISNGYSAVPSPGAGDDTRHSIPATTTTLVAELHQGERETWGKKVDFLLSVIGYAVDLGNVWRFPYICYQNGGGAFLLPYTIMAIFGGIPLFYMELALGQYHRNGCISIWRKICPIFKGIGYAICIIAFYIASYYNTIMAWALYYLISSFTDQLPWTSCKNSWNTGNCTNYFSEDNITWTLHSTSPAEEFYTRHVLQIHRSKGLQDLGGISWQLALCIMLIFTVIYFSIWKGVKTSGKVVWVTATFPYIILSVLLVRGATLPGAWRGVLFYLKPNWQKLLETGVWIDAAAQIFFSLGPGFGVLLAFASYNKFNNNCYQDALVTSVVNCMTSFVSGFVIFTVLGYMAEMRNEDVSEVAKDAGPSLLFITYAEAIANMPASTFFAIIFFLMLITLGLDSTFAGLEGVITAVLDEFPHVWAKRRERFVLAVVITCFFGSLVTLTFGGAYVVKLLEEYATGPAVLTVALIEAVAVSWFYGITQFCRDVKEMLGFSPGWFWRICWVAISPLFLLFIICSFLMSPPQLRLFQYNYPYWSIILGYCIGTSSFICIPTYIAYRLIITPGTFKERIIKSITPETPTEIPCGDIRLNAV
Chain of 5HT2B Receptor (P41595 whole entry): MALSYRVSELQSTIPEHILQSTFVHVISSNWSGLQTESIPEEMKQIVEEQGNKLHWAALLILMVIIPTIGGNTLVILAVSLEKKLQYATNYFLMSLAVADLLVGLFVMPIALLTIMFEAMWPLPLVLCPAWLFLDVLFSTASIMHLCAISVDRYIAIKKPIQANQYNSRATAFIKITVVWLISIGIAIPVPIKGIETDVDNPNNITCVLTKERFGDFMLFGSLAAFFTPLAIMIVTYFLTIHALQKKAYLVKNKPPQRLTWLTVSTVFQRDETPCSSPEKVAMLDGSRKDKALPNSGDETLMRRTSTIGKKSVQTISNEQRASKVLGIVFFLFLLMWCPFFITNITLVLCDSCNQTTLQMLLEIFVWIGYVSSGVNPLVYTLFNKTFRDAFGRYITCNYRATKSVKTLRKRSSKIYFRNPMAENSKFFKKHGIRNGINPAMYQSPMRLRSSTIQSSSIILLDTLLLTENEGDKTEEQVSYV
Chain of M2 mAChR (P08172 whole entry): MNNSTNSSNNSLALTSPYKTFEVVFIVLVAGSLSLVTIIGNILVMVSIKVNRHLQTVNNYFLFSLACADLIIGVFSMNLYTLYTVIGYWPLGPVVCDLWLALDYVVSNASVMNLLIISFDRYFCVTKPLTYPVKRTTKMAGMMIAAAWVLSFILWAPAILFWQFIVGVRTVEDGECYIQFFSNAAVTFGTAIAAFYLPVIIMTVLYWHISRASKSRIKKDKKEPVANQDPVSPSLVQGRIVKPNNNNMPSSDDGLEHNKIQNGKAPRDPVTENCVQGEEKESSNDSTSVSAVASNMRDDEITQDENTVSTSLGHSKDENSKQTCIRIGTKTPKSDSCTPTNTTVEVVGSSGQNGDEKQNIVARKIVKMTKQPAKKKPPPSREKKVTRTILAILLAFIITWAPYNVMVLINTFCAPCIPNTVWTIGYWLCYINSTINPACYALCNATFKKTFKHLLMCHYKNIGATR

C[C@@H]1SC2(CCN(C)CC2)CN1C(=O)CCc1c[nH]c2ccccc12 (single isomer, unassigned) [AF710B]
release of αAPPs ([1]; CHO cells, 0.1 nM to 1 μM): enhanced the release of αAPPs
maximal αAPPs secretion in comparison to untreated control cells ([1]; doubly-transfected CHO cells, AF710B at 0.01 μM, AF710 at 0.1 μM, AF710A at 1 μM): 225%
binding to Histamine 2 Receptor [2]: binds
binding to 5HT Transporter [3]: binds
binding to 5 HT2A Receptor [4]: binds
binding to 5HT2B Receptor [5]: binds
binding to Mu Receptor [6]: binds
binding to M2 mAChR [7]: binds
binding to Sigma Receptor [8]: binds
binding to 5HT2C Receptor [9]: binds
agonist or antagonist activity on histamine 2 receptor [10]: inactive
agonist or antagonist activity on 5HT2A receptor [11]: inactive
agonist or antagonist activity on 5HT2C receptor [12]: inactive
Ki ([13]; read-out: sigma 1 receptors KH): 1.4 nM
Ki ([13]; read-out: sigma 1 receptors KL): 248 nM
mortality ([14]; 1, 10 and 50 mg/kg, oral gavage, 14-day observation): No mortality
gross pathological findings at necropsy ([14]; rat, in vivo, po): No gross pathological findings
release of αAPPs [15]: enhanced the release of αAPPs
binding to M1 mAChR [16]: binds
overactivation of GSK-3β induced by Aβ25-35 [17]: inhibited the overactivation of GSK-3β
agonistic activity on the M2-M5 mAChR subtypes [18]: did not show detectable agonistic activity
effect of brucine pre-incubation on elevation of intracellular calcium ions [19]: no such effect; also recorded: slight inhibition
